Source: patent publication US11807644B2 (PMV Pharmaceuticals, Inc., priority 2020, dated 2023)

What follows are molecules tested against T1, recombinant His-tag Y220C p53 DBD protein (Homo sapiens, UniProt P04637, Y220C) (assay: In vitro DNA binding activity assay (TR-FRET): binding of His-tag Y220C p53 DBD to biotin-labeled consensus DNA). Details: SC150 = concentration to increase DNA binding by […], His-tag Y220C p53 DBD, biotin-labeled consensus DNA.
T1 construct: recombinant His-tag Y220C p53 DBD protein (amino acids #˜94-312)
Format: biochemical

Compound	Y220C SC150 (μM)
CN1CC[C@@H](Nc2cccc3c2cc(-c2noc(CNC(=O)[C@H]4C[C@@H]4c4ccccc4)n2)n3CC(F)(F)F)[C@@H](F)C1 (racemic) [Compound 180B, (+/−)-(1R,2R)-N-{[3-(4-{[(3R,4S)-3-fluoro-1-methylpiperidin-4-yl]amino}-1-(2,2,2-trifluoroethyl)-1H-indol-2-yl)-1,2,4-oxadiazol-5-yl]methyl}-2-phenylcyclopropane-1-carboxamide]	* (* = 0 μM ≤ SC150 < 0.1 μM)
CN1CC[C@@H](Nc2cccc3c2cc(-c2noc(CNC(=O)c4ccsc4Cl)n2)n3CC(F)(F)F)[C@@H](F)C1 [Compound 215B, 2-chloro-N-{[3-(4-{[(3S,4R)-3-fluoro-1-methylpiperidin-4-yl]amino}-1-(2,2,2-trifluoroethyl)-1H-indol-2-yl)-1,2,4-oxadiazol-5-yl]methyl}thiophene-3-carboxamide]	* (* = 0 μM ≤ SC150 < 0.1 μM)
COc1cc(S(C)(=O)=O)ccc1NCc1nnc(-c2cc3c(N[C@@H]4CCN(C)C[C@@H]4F)cccc3n2CC(F)(F)F)s1 [Compound 62B, N-[(3S,4R)-3-fluoro-1-methylpiperidin-4-yl]-2-(5-{[(4-methanesulfonyl-2-methoxyphenyl)amino]methyl}-1,3,4-thiadiazol-2-yl)-1-(2,2,2-trifluoroethyl)-1H-indol-4-amine]	* (* = 0 μM ≤ SC150 < 0.1 μM)
COCc1ccc(C(=O)NCc2nc(-c3cc4c(N[C@@H]5CCN(C)C[C@@H]5F)cccc4n3CC(F)(F)F)no2)s1 [Compound 458B, N-{[3-(4-{[(3S,4R)-3-fluoro-1-methylpiperidin-4-yl]amino}-1-(2,2,2-trifluoroethyl)-1H-indol-2-yl)-1,2,4-oxadiazol-5-yl]methyl}-5-(methoxymethyl)thiophene-2-carboxamide]	* (* = 0 μM ≤ SC150 < 0.1 μM)
CC(C)(C)n1cc(C(=O)NCc2nc(-c3cc4c(N[C@@H]5CCOC[C@@H]5F)cccc4n3CC(F)(F)F)no2)cn1 [Compound 497B, 1-tert-butyl-N-{[3-(4-{[(3R,4R)-3-fluorooxan-4-yl]amino}-1-(2,2,2-trifluoroethyl)-1H-indol-2-yl)-1,2,4-oxadiazol-5-yl]methyl}-1H-pyrazole-4-carboxamide]	* (* = 0 μM ≤ SC150 < 0.1 μM)
CN1CC[C@@H](Nc2cccc3c2cc(-c2noc(CNC(=O)[C@@H]4C[C@H]4CN4CCOCC4)n2)n3CC(F)(F)F)[C@@H](F)C1 [Compound 245B, (1R,2R)-N-{[3-(4-{[(3S,4R)-3-fluoro-1-methylpiperidin-4-yl]amino}-1-(2,2,2-trifluoroethyl)-1H-indol-2-yl)-1,2,4-oxadiazol-5-yl]methyl}-2-[(morpholin-4-yl)methyl]cyclopropane-1-carboxamide]	* (* = 0 μM ≤ SC150 < 0.1 μM)
COc1ccccc1C(=O)NCc1nnc(-c2cc3c(NC4CCN(C)CC4)cccc3n2CC(F)(F)F)s1 [Compound 66B, 2-methoxy-N-[(5-{4-[(1-methylpiperidin-4-yl)amino]-1-(2,2,2-trifluoroethyl)-1H-indol-2-yl}-1,3,4-thiadiazol-2-yl)methyl]benzamide]	* (* = 0 μM ≤ SC150 < 0.1 μM)
CN1CC[C@@H](Nc2cccc3c2cc(-c2nnc(CNC(=O)c4ccn(C(C)(C)C)c4)o2)n3CC(F)(F)F)[C@@H](F)C1 [Compound 288B, 1-tert-butyl-N-{[5-(4-{[(3S,4R)-3-fluoro-1-methylpiperidin-4-yl]amino}-1-(2,2,2-trifluoroethyl)-1H-indol-2-yl)-1,3,4-oxadiazol-2-yl]methyl}-1H-pyrrole-3-carboxamide]	* (* = 0 μM ≤ SC150 < 0.1 μM)
CN1CC[C@@H](Nc2cccc3c2cc(-c2noc(CNC(=O)[C@@H]4C[C@H]4c4cccc(F)c4)n2)n3CC(F)(F)F)[C@@H](F)C1 [Compound 235B, (1R,2R)-N-{[3-(4-{[(3S,4R)-3-fluoro-1-methylpiperidin-4-yl]amino}-1-(2,2,2-trifluoroethyl)-1H-indol-2-yl)-1,2,4-oxadiazol-5-yl]methyl}-2-(3-fluorophenyl)cyclopropane-1-carboxamide]	* (* = 0 μM ≤ SC150 < 0.1 μM)
CN1CC[C@@H](Nc2cccc3c2cc(-c2ncc(CNC(=O)C4CC4)s2)n3CC(F)(F)F)[C@@H](F)C1 (racemic) [Compound 95B, (+/−)-N-{[2-(4-{[(3R,4S)-3-fluoro-1-methylpiperidin-4-yl]amino}-1-(2,2,2-trifluoroethyl)-1H-indol-2-yl)-1,3-thiazol-5-yl]methyl}cyclopropanecarboxamide]	* (* = 0 μM ≤ SC150 < 0.1 μM)
CN1CC[C@@H](Nc2cccc3c2cc(-c2noc(CNc4ccn(C(C)(C)C)n4)n2)n3CC(F)(F)F)[C@@H](F)C1 [Compound 390B, 2-(5-{[(1-tert-butyl-1H-pyrazol-3-yl)amino]methyl}-1,2,4-oxadiazol-3-yl)-N-[(3S,4R)-3-fluoro-1-methylpiperidin-4-yl]-1-(2,2,2-trifluoroethyl)-1H-indol-4-amine]	* (* = 0 μM ≤ SC150 < 0.1 μM)
CC(C)(C)n1ccc(C(=O)NCc2nc(-c3cc4c(N[C@H]5CCC(=O)NC5)cccc4n3CC(F)(F)F)no2)c1 [Compound 356B, 1-tert-butyl-N-{[3-(4-{[(3S)-6-oxopiperidin-3-yl]amino}-1-(2,2,2-trifluoroethyl)-1H-indol-2-yl)-1,2,4-oxadiazol-5-yl]methyl}-1H-pyrrole-3-carboxamide]	* (* = 0 μM ≤ SC150 < 0.1 μM)
CN1CCC(Nc2cccc3c2cc(-c2ccc(CNc4ccc(S(C)(=O)=O)cc4)s2)n3CC(F)(F)F)CC1 [Compound 100B, 2-(5-{[(4-methanesulfonylphenyl)amino]methyl}thiophen-2-yl)-N-(1-methylpiperidin-4-yl)-1-(2,2,2-trifluoroethyl)-1H-indol-4-amine]	** (** = 0.1 μM ≤ SC150 < 0.5 μM)
CCN1CC[C@@H](Nc2cccc3c2cc(-c2noc(CNC(=O)c4cnn(C5CCOCC5)c4)n2)n3CC(F)(F)F)[C@@H](F)C1 [Compound 334B, N-{[3-(4-{[(3S,4R)-1-ethyl-3-fluoropiperidin-4-yl]amino)-1-(2,2,2-trifluoroethyl)-1H-indol-2-yl)-1,2,4-oxadiazol-5-yl]methyl}-1-(oxan-4-yl)-1H-pyrazole-4-carboxamide]	* (* = 0 μM ≤ SC150 < 0.1 μM)
CN1CCC(Nc2cccc3c2cc(-c2nnc(CNC(=O)c4cccc(CN5CCOCC5)c4)s2)n3CC(F)(F)F)CC1 [Compound 46B, N-[(5-{4-[(1-methylpiperidin-4-yl)amino]-1-(2,2,2-trifluoroethyl)-1H-indol-2-yl}-1,3,4-thiadiazol-2-yl)methyl]-3-[(morpholin-4-yl)methyl]benzamide]	* (* = 0 μM ≤ SC150 < 0.1 μM)
CN1CC[C@@H](Nc2cccc3c2cc(-c2nc(CNC(=O)c4cccs4)no2)n3CC(F)(F)F)[C@@H](F)C1 (racemic) [Compound 277B, (+/−)-N-{[5-(4-{[(3R,4S)-3-fluoro-1-methylpiperidin-4-yl]amino}-1-(2,2,2-trifluoroethyl)-1H-indol-2-yl)-1,2,4-oxadiazol-3-yl]methyl}thiophene-2-carboxamide]	* (* = 0 μM ≤ SC150 < 0.1 μM)
CC(C)N1CC[C@@H](Nc2cccc3c2cc(-c2noc(CNC(=O)c4cn(C(C)(C)C)cn4)n2)n3CC(F)(F)F)[C@@H](F)C1 [Compound 318B, 1-tert-butyl-N-{[3-(4-{[(3S,4R)-3-fluoro-1-(propan-2-yl)piperidin-4-yl]amino}-1-(2,2,2-trifluoroethyl)-1H-indol-2-yl)-1,2,4-oxadiazol-5-yl]methyl}-1H-imidazole-4-carboxamide]	* (* = 0 μM ≤ SC150 < 0.1 μM)
COC(=O)[C@@H]1C[C@H]1C(=O)NCc1nnc(-c2cc3c(NC4CCN(C)CC4)cccc3n2CC(F)(F)F)s1 (racemic) [Compound 75B, (+/−)-methyl (1R,2R)-2-{[(5-{4-[(1-methylpiperidin-4-yl)amino]-1-(2,2,2-trifluoroethyl)-1H-indol-2-yl}-1,3,4-thiadiazol-2-yl)methyl]carbamoyl}cyclopropane-1-carboxylate]	* (* = 0 μM ≤ SC150 < 0.1 μM)
CN1CC[C@@H](Nc2cccc3c2cc(-c2noc(CNC(=O)[C@@H]4C[C@@H]4C#N)n2)n3CC(F)(F)F)[C@@H](F)C1 (mixture of isomers) [Compound 195B, (1RS,2SR)-2-cyano-N-{[3-(4-{[(3S,4R)-3-fluoro-1-methylpiperidin-4-yl]amino}-1-(2,2,2-trifluoroethyl)-1H-indol-2-yl)-1,2,4-oxadiazol-5-yl]methyl}cyclopropane-1-carboxamide]	* (* = 0 μM ≤ SC150 < 0.1 μM)

Same assay, conditions: concentration to increase DNA binding by […], incubated at either 27° C. or 29° C. for 60 min

Compound	SC150 (μM)
FC(F)(F)Cn1c(-c2ccc(CNc3cccc(Cl)c3)cc2)cc2c(NC3CCN(C4CCOCC4)CC3)cccc21 [Compound 34A, 2-(4-{[(3-chlorophenyl)amino]methyl}phenyl)-N-[1-(oxan-4-yl)piperidin-4-yl]-1-(2,2,2-trifluoroethyl)-1H-indol-4-amine]	++++ (++++ = 10 μM ≤ SC150 < 35 μM)
NCc1ccc(-c2cc3c(NC4CCS(=O)(=O)CC4)cccc3n2CC(F)(F)F)cc1 [Compound 2A, 4-({2-[4-(aminomethyl)phenyl]-1-(2,2,2-trifluoroethyl)-1H-indol-4-yl}amino)-1λ^6-thiane-1,1-dione]	+++ (+++ = 5 μM ≤ SC150 < 10 μM)
Cc1ccc(NCc2ccc(-c3cc4c(NC5CCN(C6CCOCC6)CC5)cccc4n3CC(F)(F)F)cc2)cn1 [Compound 31A, 2-(4-{[(6-methylpyridin-3-yl)amino]methyl}phenyl)-N-[1-(oxan-4-yl)piperidin-4-yl]-1-(2,2,2-trifluoroethyl)-1H-indol-4-amine]	+ (+ = 0 μM ≤ SC150 < 2 μM)
CC(C)(C)c1ccc(C(=O)NCc2ccc(-c3cc4c(NC5CCS(=O)(=O)CC5)cccc4n3CC(F)(F)F)cc2)cc1 [Compound 15A, 4-tert-butyl-N-[(4-{4-[(1,1-dioxo-1λ^6-thian-4-yl)amino]-1-(2,2,2-trifluoroethyl)-1H-indol-2-yl}phenyl)methyl]benzamide]	+++ (+++ = 5 μM ≤ SC150 < 10 μM)
